Data: patent US10517803B2, “Individual's sensitivity to fluoride poisoning” (priority 2017, dated 2019)

Experiments:
rats [1] = test: Median lethal dose (LD50) orally in rats; assay type: in vivo; details: extrapolated from oral rat LD50 to a 100 kg adult
rats [2] = details: orally in rats; cited from earlier work
people = details: most people; cited from earlier work

Question: With `F[Si-2](F)(F)(F)(F)F.[Na+].[Na+]` [sodium fluorosilicate] as the molecule, how does the “median lethal dose (LD50), corresponding amount for a 100 kg adult” value (rats [1]) read?
Answer: 12.5 g

Question: What about the “median lethal dose (LD50)” value (rats [2]) of the same molecule?
Answer: 125 mg/kg

Question: Which “highest level of daily nutrient intake likely to pose no risk of adverse health effects” value (people) does the source give for `F` [Fluoride] here?
Answer: 10 mg/day
